Test results published in paper PMC4317238 (Pharmacology Research & Perspectives, 2015).
Ends that are not written are not given here.

Key:
[1] = cited from earlier work
[2] = test system: their receptors; settings: ref Rizzi et al. 2014; Ruzza et al. 2014; cited from earlier work
[3] = test system: NPSR(−/−) mice; experiment: Recovery of righting reflex; assay type: in vivo, mouse (congenic to CD-1); settings: diazepam 15 mg/kg i.p.
[4] = biological target: T1, mouse NPS receptor (NPSR) (Mus musculus, UniProt Q8BZP8); experiment: Calcium mobilization assay, agonist; assay type: cell-based; settings: HEK293mNPSR; mean ± SEM
T1 sequence (Q8BZP8 1-371): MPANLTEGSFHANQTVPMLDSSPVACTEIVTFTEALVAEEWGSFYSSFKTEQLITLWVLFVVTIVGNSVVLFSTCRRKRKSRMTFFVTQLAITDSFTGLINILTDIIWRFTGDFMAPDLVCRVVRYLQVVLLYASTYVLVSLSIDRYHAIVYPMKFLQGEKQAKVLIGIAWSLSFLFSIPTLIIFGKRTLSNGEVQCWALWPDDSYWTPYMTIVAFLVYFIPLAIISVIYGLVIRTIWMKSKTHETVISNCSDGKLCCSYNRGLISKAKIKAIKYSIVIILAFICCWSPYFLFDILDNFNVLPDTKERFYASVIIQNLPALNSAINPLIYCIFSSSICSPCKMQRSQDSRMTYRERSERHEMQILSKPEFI

Molecule: substance P [SP]
- duration of action, SP and PWT2-SP ([1]; ref Ruzza et al. 2014): ~5 min
- potency relative to PWT derivative, calcium mobilization [2]: more potent than their PWT derivatives

Molecule: CN1C(=O)CN=C(c2ccccc2)c2cc(Cl)ccc21 [diazepam]
- sensitivity to diazepam, NPSR wild type vs. knockout [3]: no differences were measured

Molecule: nociceptin/orphanin FQ [N/OFQ]
- duration of action, N/OFQ ([1]; ref Rizzi et al. 2014): ~20 min
- potency relative to PWT derivative, calcium mobilization [2]: more potent than their PWT derivatives

Molecule: SFRNGVGTGMKKTSFQRAKS [NPS, neuropeptide S]
- Emax (increase in intracellular calcium) [4]: 417 ± 34 % over the basal levels

Molecule: neurokinin A [NK-A]
- potency relative to PWT derivative, calcium mobilization [2]: more potent than their PWT derivatives
